# Calls of active or inactive are those of the source. The rule behind the calls is not given here.
# Legend:
# [1] = Tmax in ICR mouse at 10 mg/kg, po measured at 0.25 to 12 hrs by LC-MS/MS analysis; type: ADME, organism-based; conditions: in vivo, time 0.25-12 hrs
# [2] = AUClast in ICR mouse at 1 mg/kg, iv measured at 0.25 to 12 hrs by LC-MS/MS analysis; type: ADME, organism-based; design: time lower 0.25 hrs, dose 1 mg/kg, time upper 12 hrs, route iv; conditions: in vivo
# [3] = target: CYP3A4 (Homo sapiens, UniProt P08684); test: Inhibition of CYP3A4 in human liver microsomes using midazolam as substrate assessed as residual activity at 10 uM preincubated for 5 mins followed by substrate addition and measured after 15 mins in presence of NADPH by LC-MS/MS analysis; type: ADME, Microsome; conditions: probe midazolam, time 20 min, read-out: Activity
# [4] = target: T1, Sphingosine 1-phosphate receptor 1 (Homo sapiens, UniProt P21453); test: Agonist activity at S1P1 (unknown origin) expressed in human HEK293/Galpha15 cells assessed as Ca2+ activation at 1 uM measured for 2 hrs by FLIPR analysis relative to control; type: functional, cell-based
# [5] = target: T1, Sphingosine 1-phosphate receptor 1; test: Agonist activity at S1P1 (unknown origin) expressed in human HEK293/Galpha15 cells assessed as Ca2+ activation measured for 2 hrs by FLIPR analysis; type: functional, cell-based
# [6] = Half life in ICR mouse at 1 mg/kg, iv measured at 0.25 to 12 hrs by LC-MS/MS analysis; type: ADME, organism-based; conditions: in vivo, time 0.25-12 hrs
# [7] = Observed MRT (infinitive) in ICR mouse at 10 mg/kg, po measured at 0.25 to 12 hrs by LC-MS/MS analysis; type: ADME, organism-based; conditions: in vivo, time 0.25-12 hrs
# [8] = target: T1, Sphingosine 1-phosphate receptor 1; test: Agonist activity at S1P1 (unknown origin) expressed in PathHunter CHO-K1 EDG1 beta-arrestin cells assessed as beta-arrestin2 recruitment incubated for 90 mins by chemiluminescence based assay; type: functional, cell-based
# [9] = Observed MRT (infinitive) in ICR mouse at 1 mg/kg, iv measured at 0.25 to 12 hrs by LC-MS/MS analysis; type: ADME, organism-based; conditions: in vivo, time 0.25-12 hrs
# [10] = target: CYP2D6 (Homo sapiens, UniProt P10635); test: Inhibition of CYP2D6 in human liver microsomes using dextromethorphan as substrate assessed as residual activity at 10 uM preincubated for 5 mins followed by substrate addition and measured after 15 mins in presence of NADPH by LC-MS/MS analysis; type: ADME, Microsome; conditions: probe dextromethorphan, time 20 min, read-out: Activity
# [11] = target: CYP2C9 (Homo sapiens, UniProt P11712); test: Inhibition of CYP2C9 in human liver microsomes using diclofenac as substrate assessed as residual activity at 10 uM preincubated for 5 mins followed by substrate addition and measured after 15 mins in presence of NADPH by LC-MS/MS analysis; type: ADME, Microsome; conditions: probe diclofenac, time 20 min, read-out: Activity
# [12] = Microsomal stability in rat liver microsomes assessed as parent compound remaining preincubated for 5 mins followed by NADPH addition measured after 30 mins by LC-MS/MS analysis; type: ADME, Microsome; conditions: time 35 min, read-out: Stability
# [13] = Half life in ICR mouse at 10 mg/kg, po measured at 0.25 to 12 hrs by LC-MS/MS analysis; type: ADME, organism-based; conditions: in vivo, time 0.25-12 hrs
# [14] = Oral bioavailability in ICR mouse at 10 mg/kg measured at 0.25 to 12 hrs by LC-MS/MS analysis; type: ADME, organism-based; conditions: in vivo, time 0.25-12 hrs
# [15] = Cmax in ICR mouse at 10 mg/kg, po measured at 0.25 to 12 hrs by LC-MS/MS analysis; type: ADME, organism-based; design: time upper 12 hrs, dose 10 mg/kg, time lower 0.25 hrs, route po; conditions: in vivo
# [16] = Observed clearance in ICR mouse at 1 mg/kg, iv measured at 0.25 to 12 hrs by LC-MS/MS analysis; type: ADME, organism-based; conditions: in vivo, time 0.25-12 hrs
# [17] = AUClast in ICR mouse at 10 mg/kg, po measured at 0.25 to 12 hrs by LC-MS/MS analysis; type: ADME, organism-based; design: time 0.25-12 hrs, dose 10 mg/kg, route po; conditions: in vivo
# [18] = target: T1, Sphingosine 1-phosphate receptor 1; test: Agonist activity at S1P1 (unknown origin) expressed in PathHunter CHO-K1 EDG1 beta-arrestin cells assessed as beta-arrestin2 recruitment at 1 uM incubated for 90 mins by chemiluminescence based assay relative to control; type: functional, cell-based; conditions: filed as agonist
# [19] = Observed volume of distribution at steady state in ICR mouse at 1 mg/kg, iv measured at 0.25 to 12 hrs by LC-MS/MS analysis; type: ADME, organism-based; conditions: in vivo, time 0.25-12 hrs, read-out: Vdss
# [20] = system: Mus musculus; test: In vivo agonist activity at S1P1 in mouse assessed as reduction in peripheral lymphocyte count at 10 mg/kg, po measured at 3 hrs; type: functional, organism-based
# [21] = Microsomal stability in human liver microsomes assessed as parent compound remaining preincubated for 5 mins followed by NADPH addition measured after 30 mins by LC-MS/MS analysis; type: ADME, Microsome; conditions: time 35 min, read-out: Stability
# [22] = Microsomal stability in mouse liver microsomes assessed as parent compound remaining preincubated for 5 mins followed by NADPH addition measured after 30 mins by LC-MS/MS analysis; type: ADME, Microsome; conditions: time 35 min, read-out: Stability
# [23] = target: T2, CYP1A2 (Homo sapiens, UniProt P05177); test: Inhibition of CYP1A2 in human liver microsomes using phenacetin as substrate assessed as residual activity at 10 uM preincubated for 5 mins followed by substrate addition and measured after 15 mins in presence of NADPH by LC-MS/MS analysis; type: ADME, Microsome; conditions: probe phenacetin, time 20 min, read-out: Activity
# T2 sequence (P05177 whole entry): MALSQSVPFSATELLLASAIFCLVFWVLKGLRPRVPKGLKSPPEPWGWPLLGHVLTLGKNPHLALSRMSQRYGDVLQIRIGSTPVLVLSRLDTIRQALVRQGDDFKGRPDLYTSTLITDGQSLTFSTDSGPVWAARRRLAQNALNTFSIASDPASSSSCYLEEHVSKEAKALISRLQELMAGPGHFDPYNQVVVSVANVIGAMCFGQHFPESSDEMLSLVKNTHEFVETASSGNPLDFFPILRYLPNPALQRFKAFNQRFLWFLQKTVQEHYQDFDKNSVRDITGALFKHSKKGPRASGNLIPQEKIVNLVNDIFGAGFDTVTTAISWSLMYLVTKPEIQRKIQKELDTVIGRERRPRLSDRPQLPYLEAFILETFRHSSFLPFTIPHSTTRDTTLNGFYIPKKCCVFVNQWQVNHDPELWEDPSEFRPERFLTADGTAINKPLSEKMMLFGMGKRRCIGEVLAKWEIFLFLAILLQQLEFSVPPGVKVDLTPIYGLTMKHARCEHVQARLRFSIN
# [24] = Microsomal stability in mouse liver microsomes assessed as parent compound remaining preincubated for 5 mins followed by NADPH addition measured after 60 mins by LC-MS/MS analysis; type: ADME, Microsome; conditions: time 65 min, read-out: Stability
# [25] = Microsomal stability in rat liver microsomes assessed as parent compound remaining preincubated for 5 mins followed by NADPH addition measured after 60 mins by LC-MS/MS analysis; type: ADME, Microsome; conditions: time 65 min, read-out: Stability
# [26] = Microsomal stability in human liver microsomes assessed as parent compound remaining preincubated for 5 mins followed by NADPH addition measured after 60 mins by LC-MS/MS analysis; type: ADME, Microsome; conditions: time 65 min, read-out: Stability
# Sequence of CYP3A4 (P08684 whole entry): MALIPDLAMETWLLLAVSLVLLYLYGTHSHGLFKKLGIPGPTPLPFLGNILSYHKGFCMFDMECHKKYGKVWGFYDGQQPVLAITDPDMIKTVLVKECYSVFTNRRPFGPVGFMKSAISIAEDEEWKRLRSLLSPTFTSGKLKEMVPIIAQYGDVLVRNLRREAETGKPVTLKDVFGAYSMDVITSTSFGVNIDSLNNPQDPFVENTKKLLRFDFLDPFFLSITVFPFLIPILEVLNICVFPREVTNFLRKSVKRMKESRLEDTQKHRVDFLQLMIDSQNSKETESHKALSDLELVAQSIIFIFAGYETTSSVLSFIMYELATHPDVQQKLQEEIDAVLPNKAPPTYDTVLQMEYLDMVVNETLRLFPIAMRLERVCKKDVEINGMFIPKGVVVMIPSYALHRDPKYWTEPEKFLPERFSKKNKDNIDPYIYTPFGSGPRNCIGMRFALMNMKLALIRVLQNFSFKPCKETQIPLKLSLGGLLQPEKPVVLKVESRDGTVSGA
# T1 sequence (P21453 whole entry): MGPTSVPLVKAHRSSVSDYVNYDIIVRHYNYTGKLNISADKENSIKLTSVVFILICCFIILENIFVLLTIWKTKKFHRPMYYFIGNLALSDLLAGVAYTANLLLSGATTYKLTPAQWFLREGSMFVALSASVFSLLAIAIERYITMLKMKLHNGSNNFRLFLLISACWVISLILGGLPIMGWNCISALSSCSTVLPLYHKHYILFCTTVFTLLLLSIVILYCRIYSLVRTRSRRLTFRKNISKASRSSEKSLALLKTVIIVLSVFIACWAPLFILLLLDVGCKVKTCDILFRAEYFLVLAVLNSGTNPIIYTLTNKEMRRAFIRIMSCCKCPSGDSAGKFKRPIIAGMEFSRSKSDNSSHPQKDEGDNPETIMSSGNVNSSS
# Sequence of CYP2C9 (P11712 whole entry): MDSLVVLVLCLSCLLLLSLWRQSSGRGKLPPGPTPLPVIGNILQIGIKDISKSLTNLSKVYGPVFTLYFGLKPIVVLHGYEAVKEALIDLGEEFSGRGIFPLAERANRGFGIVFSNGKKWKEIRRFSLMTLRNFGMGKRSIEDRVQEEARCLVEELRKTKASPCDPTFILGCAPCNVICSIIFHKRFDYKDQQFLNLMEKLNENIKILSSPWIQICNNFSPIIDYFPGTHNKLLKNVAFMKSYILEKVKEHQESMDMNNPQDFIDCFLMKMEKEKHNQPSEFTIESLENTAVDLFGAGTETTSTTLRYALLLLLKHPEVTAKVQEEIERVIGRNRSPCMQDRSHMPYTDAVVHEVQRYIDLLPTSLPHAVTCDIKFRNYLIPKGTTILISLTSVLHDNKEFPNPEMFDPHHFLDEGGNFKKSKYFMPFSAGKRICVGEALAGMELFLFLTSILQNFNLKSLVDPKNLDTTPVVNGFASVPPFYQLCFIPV
# Sequence of CYP2D6 (P10635 whole entry): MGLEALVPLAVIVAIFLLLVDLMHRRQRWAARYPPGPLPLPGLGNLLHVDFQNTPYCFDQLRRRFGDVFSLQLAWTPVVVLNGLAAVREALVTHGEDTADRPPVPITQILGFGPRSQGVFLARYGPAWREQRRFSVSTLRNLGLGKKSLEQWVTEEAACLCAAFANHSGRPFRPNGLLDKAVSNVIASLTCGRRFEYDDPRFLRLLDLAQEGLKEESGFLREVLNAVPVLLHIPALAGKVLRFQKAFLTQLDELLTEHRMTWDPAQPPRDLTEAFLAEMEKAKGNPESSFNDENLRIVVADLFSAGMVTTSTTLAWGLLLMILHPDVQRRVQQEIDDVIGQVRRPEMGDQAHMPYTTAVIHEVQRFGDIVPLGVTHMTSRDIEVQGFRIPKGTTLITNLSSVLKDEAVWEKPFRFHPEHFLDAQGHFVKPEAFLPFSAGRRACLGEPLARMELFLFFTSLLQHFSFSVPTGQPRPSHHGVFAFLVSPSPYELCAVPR
SMILES,"activity at 0.25 h, 10 µM [3]",Activity ([4]; filed as agonist),EC50 [5],EC50 [8],"activity at 0.25 h, 10 µM [10]","activity at 0.25 h, 10 µM [11]",remaining at 0.5 h [12],Activity [18],remaining at 0.5 h [21],remaining at 0.5 h [22],"activity at 0.25 h, 10 µM [23]",Activity [4],other results
CC(C)Oc1ccc(COc2ccc3c(c2)CCN(S(=O)(=O)CCC(=O)O)C3C)cc1C#N (stereo not drawn),92%,,,0.795 µM,87.6%,78.4%,,77%,,,93.2%,8%,remaining at 1 h [24]: 89.7%; remaining at 1 h [25]: 90.8%; remaining at 1 h [26]: 100%
CC(C)Oc1ccc(COc2ccc3c(c2)CCCN(S(=O)(=O)CC(=O)O)C3)cc1C#N,87.7%,94%,0.0463 µM,0.0253 µM,89.4%,86.1%,,94%,,,86.9%,,remaining at 1 h [24]: 85.1%; remaining at 1 h [25]: 73.6%; remaining at 1 h [26]: 90.9%
CC(C)Oc1ccc(COc2ccc3c(c2)CCN(S(=O)(=O)CCC(=O)N(C)C)C3)cc1C#N,,,,0.453 µM,,,18.7%,98%,18.9%,14.1%,,4%,
CNC(=O)CCS(=O)(=O)N1CCc2cc(OCc3ccc(OC(C)C)c(C#N)c3)ccc2C1,,,,0.362 µM,,,13.4%,107%,21.9%,15.8%,,4%,

# More lines, main results first:
"activity at 0.25 h, 10 µM [3]",Activity ([4]; filed as agonist),EC50 [5],EC50 [8],"activity at 0.25 h, 10 µM [10]","activity at 0.25 h, 10 µM [11]",remaining at 0.5 h [12],Activity [18],remaining at 0.5 h [21],remaining at 0.5 h [22],"activity at 0.25 h, 10 µM [23]",Activity [4],SMILES,other results
87.5%,100%,0.014 µM,0.05 µM,91.9%,75.4%,93.8%,125%,90.2%,100%,80.4%,,CC(C)Oc1ccc(COc2ccc3c(c2)CCN(S(=O)(=O)CCC(=O)O)C3)cc1C#N,Tmax [1]: 0.5 h; AUC(0-t) [2]: 925 ng·h/mL; half-life [6]: 2.4 h; MRT inf [7]: 1.9 h; MRT inf [9]: 1 h; half-life [13]: 1.3 h; bioavailability [14]: 46.4%; Cmax [15]: 2290 ng/mL; clearance [16]: 18.2 mL/min/kg; AUC(0-t) [17]: 4290 ng·h/mL; Vd [19]: 1.1 L/kg; Activity [20]: Active
,,,0.567 µM,,,13.9%,76%,24.4%,11.4%,,25%,CC(C)Oc1ccc(COc2ccc3c(c2)CCN(C(=O)CCC(=O)N(C)C)C3)cc1C#N,
26.3%,79%,0.275 µM,0.455 µM,54.9%,27.6%,92.1%,81%,94.3%,100%,59.7%,,CC(C)Oc1ccc(COc2ccc3c(c2)CCN(C(=O)CCC(=O)O)C3)cc1C#N,

# Reference: ChEMBL document CHEMBL5346978, “Exploration of Tetrahydroisoquinoline- and Benzo[c]azepine-Based Sphingosine 1-Phosphate Receptor 1 Agonists for the Treatment of Multiple Sclerosis” (J Med Chem, 2023)
